The subject of test [1] is lentiviral pseudoparticles harboring the SARS-CoV-2 Hu-1 spike. In words: microbe, parasite or virus in culture. The following applies: Severe acute respiratory syndrome coronavirus 2, Caco-2, 48 h, read-out: IC50, SARS-CoV-2 spike-driven pseudoparticle entry, Caco-2 cells, Hu-1 spike, luciferase 48 h after transduction.
The subject of test [2] is SARS-CoV-2 B.1 D614G. To be noted: read-out: anti-viral IC50 (±SEM), SARS-CoV-2 B.1.
In test [3] the test system is lentiviral pseudoparticles harboring the SARS-CoV-2 Hu-1 spike.
Where [4] appears, read: read-out: IC50, SARS-CoV-2 spike-driven pseudoparticle entry, Caco-2 cells, luciferase 48 h after transduction.

Counter-ions that a name gives are not always drawn. Like-named read-outs stand apart in the source and are kept apart here. Bridge positions count the residues as written; N and C are the ends. Ends that are not written are not given here.

Broadly, the IC50 is the concentration needed to halve the response being measured. On to `CN(C)C(=O)COC(=O)Cc1ccc(OC(=O)c2ccc(NC(=N)N)cc2)cc1` [Camostat mesylate], for which the IC50 in test [1] stood at 93.8 ± 6 nM; in test [2] it was 4.1 ± 2 nM.

With `CC(=O)NCC(=O)N[C@@H](CCC(N)=O)C(=O)N[C@@H](Cc1ccccc1)C(=O)N[C@@H](CCCN=C(N)N)C(=O)c1nc2ccccc2s1` [MM3122, reference compound], the IC50 in test [3] (setting [4]) came to 31.2 ± 3 nM.

For the molecule `N=C(N)c1ccc2cc(OC(=O)c3ccc(N=C(N)N)cc3)ccc2c1` [Nafamostat mesylate], in test [1], the IC50 was determined as 14.4 ± 1 nM.

Take Antitrypsin: the IC50 in test [3] (read-out: IC50, SARS-CoV-2 spike-driven pseudoparticle entry, Caco-2 cells, luciferase 48 h after transduction, listed as α‐1‐antitrypsin) was determined as 27400 ± 4100 nM.

Consider Aprotinin, for which, in test [3] (setting [4]), the IC50 is 427 ± 30 nM.

Consider “CNLPIVRGPCRAFIQLWAFDAVKGKCVLFPYGGCQGNGNKFYSEKECREYC (disulfide 1-51, 10-34, 26-47) [Bikunin KD 2]”, for which the IC50 in test [3] (setting [4]) is 170 ± 20 nM.

B1: Bikunin (protein, UniProt P02760 206-352, looked up)
Inter-alpha-trypsin inhibitor …: AVLPQEEEGSGGGQLVTEVTKKEDSCQLGYSAGPCMGMTSRYFYNGTSMACETFQYGGCMGNGNNFVTEKECLQTCRTVAACNLPIVRGPCRAFIQLWAFDAVKGKCVLFPYGGCQGNGNKFYSEKECREYCGVPGDGDEELLRFSN
modifications: Inter-alpha-trypsin inhibitor light chain
Take B1: the IC50 in test [3] (setting [4]) amounted to 6100 ± 1200 nM.
